This is an account of results in patent US12492181B2, “Gem-disubstituted piperidine melanocortin subtype-2 receptor (MC2R) antagonists and uses thereof” (Crinetics Pharmaceuticals, Inc., priority 2019, dated 2025).

pKi: −log10 of the molar value. Some results are limits rather than exact numbers.

In the experiment the target is T1, hMC2 receptor (crude hMC2R membranes from CRE-bla-CHO-K1 cells stably expressing hMC2 receptor and hMRAP accessory protein) (Homo sapiens, UniProt Q01718).
T1 construct: crude membrane fractions
T1 sequence (Q01718 whole entry): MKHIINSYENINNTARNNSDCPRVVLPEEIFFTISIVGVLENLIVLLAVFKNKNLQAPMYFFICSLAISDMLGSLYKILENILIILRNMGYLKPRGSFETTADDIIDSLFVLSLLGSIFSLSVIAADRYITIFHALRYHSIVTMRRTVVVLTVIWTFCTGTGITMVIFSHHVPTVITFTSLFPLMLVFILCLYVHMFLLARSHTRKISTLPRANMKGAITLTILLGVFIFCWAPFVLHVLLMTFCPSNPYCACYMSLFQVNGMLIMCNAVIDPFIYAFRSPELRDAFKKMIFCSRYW
T1 sequence (Q8TCY5 whole entry partner): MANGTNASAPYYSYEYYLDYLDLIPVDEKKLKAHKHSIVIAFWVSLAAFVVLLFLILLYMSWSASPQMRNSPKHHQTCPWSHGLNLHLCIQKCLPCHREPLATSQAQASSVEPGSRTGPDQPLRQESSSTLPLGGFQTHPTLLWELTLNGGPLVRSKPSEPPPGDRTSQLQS
Description: hMC2 membrane binding assay ([125I]ACTH (1-39) Tyr23, SPA). As to conditions: displacement of 0.2 nM [125I]ACTH (1-39) Tyr23 from hMC2R membranes, 1.5 hours at room temperature; read-out: MC2R binding potency. The method, boiled down: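 Ki values come from non-linear regression of SPA scintillation counts, with compounds displacing [125I]ACTH(1-39) Tyr23. Membranes come from CRE-bla-CHO-K1 cells stably expressing hMC2 receptor together with hMRAP. They are preincubated with WGA-coated PVT SPA beads in 50 mM HEPES pH 7.4 with 0.20% BSA, Mg2+, Ca2+ and protease inhibitors.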
As for `CN1CC[C@H](NC(=O)C2(c3ccc(-c4cccc(F)c4C#N)nc3)CCN(c3ccc(C(F)(F)F)cc3C#N)CC2)C1` [Compound 1-148, 4-[6-(2-cyano-3-fluorophenyl)pyridin-3-yl]-1-[2-cyano-4-(trifluoromethyl)phenyl]-N-[(3S)-1-methylpyrrolidin-3-yl]piperidine-4-carboxamide], the pKi is 7.00 to 8.00.

Regarding `CN1CC[C@@H](NC(=O)C2(c3ccc(-c4cccc(F)c4O)nc3)CCN(c3ccc(C(F)(F)F)cc3C#N)CC2)C1` [Compound 1-129, 1-[2-cyano-4-(trifluoromethyl)phenyl]-4-[6-(3-fluoro-2-hydroxyphenyl)pyridin-3-yl]-N-[(3R)-1-methylpyrrolidin-3-yl]piperidine-4-carboxamide], the pKi was 7.00 to 8.00.

As for `CN1CC[C@@H](NC(=O)C2(c3ccc(-c4cccnc4OC(F)F)nc3)CCN(c3ccc(C(F)(F)F)cc3C#N)CC2)C1` [Compound 1-85, 1-[2-cyano-4-(trifluoromethyl)phenyl]-4-[2′-(difluoromethoxy)-[2,3′-bipyridin]-5-yl]-N-[(3R)-1-methylpyrrolidin-3-yl]piperidine-4-carboxamide], the pKi is over 8.00.

Regarding `Cn1cccc1-c1ccc(C2(C(=O)NCCN3CCC3)CCN(c3ccc(C(F)(F)F)cc3C#N)CC2)cn1` [Compound 1-248, N-[2-(azetidin-1-yl)ethyl]-1-[2-cyano-4-(trifluoromethyl)phenyl]-4-[6-(1-methyl-1H-pyrrol-2-yl)pyridin-3-yl]piperidine-4-carboxamide], the pKi was over 8.00.

Consider `CCOc1ncccc1-c1ccc(C2(C(=O)N[C@@H]3CCNC3)CCN(c3ccc(C(F)(F)F)cc3C#N)CC2)cc1` [Compound 1-2, 1-[2-cyano-4-(trifluoromethyl)phenyl]-4-[4-(2-ethoxypyridin-3-yl)phenyl]-N-[(3R)-pyrrolidin-3-yl]piperidine-4-carboxamide], for which the pKi is over 8.00.

For `CCc1ccccc1-c1ccc(C2(C(=O)N[C@H]3CCN(C)C3)CCN(c3ccc(C(F)(F)F)cc3Cl)CC2)cn1` [Compound 1-156, 1-[2-chloro-4-(trifluoromethyl)phenyl]-4-[6-(2-ethylphenyl)pyridin-3-yl]-N-[(3S)-1-methylpyrrolidin-3-yl]piperidine-4-carboxamide], the pKi was over 8.00.

For `COc1ccccc1-c1ccc(C2(NC(=O)N[C@@H]3CCN(C)C3)CCN(c3ccc(C(F)(F)F)cc3C#N)CC2)cn1` [Compound 2-56, 1-{1-[2-cyano-4-(trifluoromethyl)phenyl]-4-[6-(2-methoxyphenyl)pyridin-3-yl]piperidin-4-yl}-3-[(3R)-1-methylpyrrolidin-3-yl]urea], the pKi is over 8.00.

For the compound `CCOc1ncccc1-c1ncc(C2(C(=O)NCCN(C)C)CCN(c3ccc(C(F)(F)F)cc3C#N)CC2)cc1F` [Compound 1-308, 1-[2-cyano-4-(trifluoromethyl)phenyl]-N-[2-(dimethylamino)ethyl]-4-{2′-ethoxy-3-fluoro-[2,3′-bipyridin]-5-yl}piperidine-4-carboxamide], the pKi is over 8.00.

With `CCOc1ccccc1-c1ccc(C2(NC(=O)C3CN(C)C3)CCN(c3ccc(C(F)(F)F)cc3C#N)CC2)cn1` [Compound 2-35, N-{1-[2-cyano-4-(trifluoromethyl)phenyl]-4-[6-(2-ethoxyphenyl)pyridin-3-yl]piperidin-4-yl}-1-methylazetidine-3-carboxamide], the pKi was over 8.00.

As to `COc1ccccc1-c1ccc(C2(C(=O)NCC3CN(C)C3)CCN(c3ccc(C(F)(F)F)cc3C#N)CC2)cn1` [Compound 1-211, 1-[2-cyano-4-(trifluoromethyl)phenyl]-4-[6-(2-methoxyphenyl)pyridin-3-yl]-N-[(1-methylazetidin-3-yl)methyl]piperidine-4-carboxamide], the pKi is over 8.00.

In the case of `COc1ncccc1-c1ncc(C2(C(=O)NCCN(C)C)CCN(c3ccc(C(F)(F)F)cc3Cl)CC2)cc1F` [Compound 1-302, 1-[2-chloro-4-(trifluoromethyl)phenyl]-N-[2-(dimethylamino)ethyl]-4-{3-fluoro-2′-methoxy-[2,3′-bipyridin]-5-yl}piperidine-4-carboxamide], the pKi is over 8.00.
